Laboratory results from patent US10294202B2, “Pyrrolidinones as herbicides” (FMC Corporation, priority 2013, dated 2019).

Assays:
barnyardgrass [1] = experiment: Test A pre-/postemergence herbicide test; assay type: in vivo, Echinochloa crus-galli
Summary of the method: (§1)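 Formulated compound (non-phytotoxic solvent, surfactant) sprayed pre- onto soil of seeded loam/sand pots or post- onto seedlings at 1–2 leaves; ~10 d greenhouse; 0–100 visual control rating versus untreated.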

crabgrass, large = experiment: Test A pre-/postemergence herbicide test; assay type: in vivo, Digitaria sanguinalis
Summary of the method: as §1

giant foxtail = experiment: Test A pre-/postemergence herbicide test; assay type: in vivo, Setaria faberii
Summary of the method: as §1

morningglory = experiment: Test A pre-/postemergence herbicide test; assay type: in vivo, Ipomoea spp.
Summary of the method: as §1

pigweed = experiment: Test A pre-/postemergence herbicide test; assay type: in vivo, Amaranthus retroflexus
Summary of the method: as §1

velvetleaf = experiment: Test A pre-/postemergence herbicide test; assay type: in vivo, Abutilon theophrasti
Summary of the method: as §1

wheat = experiment: Test A pre-/postemergence herbicide test; assay type: in vivo, Triticum aestivum
Summary of the method: as §1

corn = experiment: Test A pre-/postemergence herbicide test; assay type: in vivo, Zea mays
Summary of the method: as §1

rice = experiment: Test B flooded paddy test; assay type: in vivo, Oryza sativa; conditions: 250 g ai/ha, Flood; scale of 0 to 100 where 0 is no effect and 100 is complete control
Summary of the method: (§2)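 2-leaf plants; flood 3 cm over soil; compound into paddy water; depth held. Greenhouse 13–15 d. Visual rating vs controls, 0 (no effect) to 100 (complete control); dash = not tested.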

sedge, umbrella = experiment: Test B flooded paddy test; assay type: in vivo, Cyperus difformis; conditions: 250 g ai/ha, Flood; scale of 0 to 100 where 0 is no effect and 100 is complete control
Summary of the method: as §2

ducksalad = experiment: Test B flooded paddy test; assay type: in vivo, Heteranthera limosa; conditions: 250 g ai/ha, Flood; scale of 0 to 100 where 0 is no effect and 100 is complete control
Summary of the method: as §2

barnyardgrass [2] = experiment: Test B flooded paddy test; assay type: in vivo, Echinochloa crus-galli; conditions: 250 g ai/ha, Flood; scale of 0 to 100 where 0 is no effect and 100 is complete control
Summary of the method: as §2

[3] = Postemergence, 1000 g ai/ha, 0 to 100 scale (0 no effect, 100 complete control)
[4] = Preemergence, 1000 g ai/ha, visual rating on 0 to 100 scale (0 no effect, 100 complete control), approx. 10 days
[5] = Postemergence, 125 g ai/ha, 0 to 100 scale, 0 no effect, 100 complete control
[6] = Postemergence, 500 g ai/ha, 0 to 100 scale (0 no effect, 100 complete control)
[7] = Preemergence, 125 g ai/ha, visual rating on 0 to 100 scale (0 no effect, 100 complete control)
[8] = preemergence, 500 g ai/ha, 0 to 100 scale (0 no effect, 100 complete control)
[9] = preemergence, 500 g ai/ha, 0 to 100 scale

## Cn1ccc(NC(=O)C2C(=O)NCC2c2ccc(F)c(F)c2)n1 (centres unmarked) [Compound 31]
Barnyardgrass [1]; [3]
  Plant response rating, Barnyardgrass: 60
Barnyardgrass [1]; [4]
  Plant response rating, Barnyardgrass: 50
crabgrass, large; [3]
  Plant response rating, Crabgrass, Large: 20
crabgrass, large; [4]
  Plant response rating, Crabgrass, Large: 80
Giant foxtail; [3]
  Plant response rating, Foxtail, Giant: 20
Giant foxtail; [4]
  Plant response rating, Foxtail, Giant: 80
morningglory; [3]
  Plant response rating, Morningglory: 0
pigweed; [3]
  Plant response rating, Pigweed: 0
pigweed; [4]
  Plant response rating, Pigweed: 0
velvetleaf; [3]
  Plant response rating, Velvetleaf: 0
velvetleaf; [4]
  Plant response rating, Velvetleaf: 0
wheat; [3]
  Plant response rating, Wheat: 0
wheat; [4]
  Plant response rating, Wheat: 50
corn; [3]
  Plant response rating, Corn: 30
corn; [4]
  Plant response rating, Corn: 20
rice
  Plant response rating, Rice: 0
sedge, umbrella
  Plant response rating, Sedge, Umbrella: 0
ducksalad
  Plant response rating, Ducksalad: 0
Barnyardgrass [2]
  Plant response rating, Barnyardgrass: 0

## O=C1NCC(c2ccc(Cl)nc2)C1C(=O)Nc1ccccc1C(F)(F)F (centres unmarked) [Compound 42]
Barnyardgrass [1]; [5]
  Plant response rating, Barnyardgrass: 0
Barnyardgrass [1]; [6]
  Plant response rating, Barnyardgrass: 40
Barnyardgrass [1]; [7]
  Barnyardgrass plant response rating: 0
Barnyardgrass [1]; [8]
  Plant response rating, Barnyardgrass: 60
crabgrass, large; [5]
  Plant response rating, Crabgrass, Large: 0
crabgrass, large; [6]
  Plant response rating, Crabgrass, Large: 70
crabgrass, large; [7]
  Crabgrass, Large plant response rating: 80
crabgrass, large; [9]
  Plant response rating, Crabgrass, Large: 90
Giant foxtail; [5]
  Plant response rating, Foxtail, Giant: 0
Giant foxtail; [6]
  Plant response rating, Foxtail, Giant: 20
Giant foxtail; [7]
  Foxtail, Giant plant response rating: 20
Giant foxtail; [9]
  Plant response rating, Foxtail, Giant: 80
morningglory; [5]
  Plant response rating, Morningglory: 0
morningglory; [6]
  Plant response rating, Morningglory: 0
pigweed; [5]
  Plant response rating, Pigweed: 0
pigweed; [6]
  Plant response rating, Pigweed: 0
pigweed; [7]
  Pigweed plant response rating: 0
pigweed; [9]
  Plant response rating, Pigweed: 30
velvetleaf; [5]
  Plant response rating, Velvetleaf: 30
velvetleaf; [6]
  Plant response rating, Velvetleaf: 50
velvetleaf; [7]
  Velvetleaf plant response rating: 0
velvetleaf; [9]
  Plant response rating, Velvetleaf: 0
wheat; [5]
  Plant response rating, Wheat: 0
wheat; [6]
  Plant response rating, Wheat: 0
wheat; [7]
  Wheat plant response rating: 0
wheat; [9]
  Plant response rating, Wheat: 0
corn; [5]
  Plant response rating, Corn: 0
corn; [6]
  Plant response rating, Corn: 0
corn; [7]
  Corn plant response rating: 0
corn; [9]
  Plant response rating, Corn: 0
rice
  Plant response rating, Rice: 0
sedge, umbrella
  Plant response rating, Sedge, Umbrella: 0
ducksalad
  Plant response rating, Ducksalad: 60
Barnyardgrass [2]
  Plant response rating, Barnyardgrass: 0

## CS(=O)(=O)c1ccccc1NC(=O)C1C(=O)NCC1c1ccc(Cl)c(Cl)c1 (centres unmarked) [Compound 43]
Barnyardgrass [1]; [3]
  Plant response rating, Barnyardgrass: 40
Barnyardgrass [1]; [4]
  Plant response rating, Barnyardgrass: 20
crabgrass, large; [3]
  Plant response rating, Crabgrass, Large: 20
crabgrass, large; [4]
  Plant response rating, Crabgrass, Large: 90
Giant foxtail; [3]
  Plant response rating, Foxtail, Giant: 50
Giant foxtail; [4]
  Plant response rating, Foxtail, Giant: 80
morningglory; [3]
  Plant response rating, Morningglory: 10
morningglory; [4]
  Plant response rating, Morningglory: 0
pigweed; [3]
  Plant response rating, Pigweed: 20
pigweed; [4]
  Plant response rating, Pigweed: 0
velvetleaf; [3]
  Plant response rating, Velvetleaf: 30
velvetleaf; [4]
  Plant response rating, Velvetleaf: 0
wheat; [3]
  Plant response rating, Wheat: 0
wheat; [4]
  Plant response rating, Wheat: 0
corn; [3]
  Plant response rating, Corn: 0
corn; [4]
  Plant response rating, Corn: 0
rice
  Plant response rating, Rice: 0
sedge, umbrella
  Plant response rating, Sedge, Umbrella: 0
ducksalad
  Plant response rating, Ducksalad: 0
Barnyardgrass [2]
  Plant response rating, Barnyardgrass: 0

## COc1ncccc1NC(=O)C1C(=O)NCC1c1ccc(F)c(F)c1 (centres unmarked) [Compound 46]
Barnyardgrass [1]; [5]
  Plant response rating, Barnyardgrass: 0
Barnyardgrass [1]; [6]
  Plant response rating, Barnyardgrass: 0
Barnyardgrass [1]; [7]
  Barnyardgrass plant response rating: 0
Barnyardgrass [1]; [8]
  Plant response rating, Barnyardgrass: 50
crabgrass, large; [5]
  Plant response rating, Crabgrass, Large: 30
crabgrass, large; [6]
  Plant response rating, Crabgrass, Large: 60
crabgrass, large; [7]
  Crabgrass, Large plant response rating: 70
crabgrass, large; [9]
  Plant response rating, Crabgrass, Large: 90
Giant foxtail; [5]
  Plant response rating, Foxtail, Giant: 0
Giant foxtail; [6]
  Plant response rating, Foxtail, Giant: 40
Giant foxtail; [7]
  Foxtail, Giant plant response rating: 40
Giant foxtail; [9]
  Plant response rating, Foxtail, Giant: 80
morningglory; [5]
  Plant response rating, Morningglory: 0
morningglory; [6]
  Plant response rating, Morningglory: 0
morningglory; [7]
  Morningglory plant response rating: 0
morningglory; [9]
  Plant response rating, Morningglory: 0
pigweed; [5]
  Plant response rating, Pigweed: 0
pigweed; [6]
  Plant response rating, Pigweed: 0
pigweed; [7]
  Pigweed plant response rating: 0
pigweed; [9]
  Plant response rating, Pigweed: 0
velvetleaf; [5]
  Plant response rating, Velvetleaf: 0
velvetleaf; [6]
  Plant response rating, Velvetleaf: 0
velvetleaf; [7]
  Velvetleaf plant response rating: 0
velvetleaf; [9]
  Plant response rating, Velvetleaf: 0
wheat; [5]
  Plant response rating, Wheat: 0
wheat; [6]
  Plant response rating, Wheat: 0
wheat; [7]
  Wheat plant response rating: 0
wheat; [9]
  Plant response rating, Wheat: 0
corn; [7]
  Corn plant response rating: 0
corn; [9]
  Plant response rating, Corn: 0
rice
  Plant response rating, Rice: 0
sedge, umbrella
  Plant response rating, Sedge, Umbrella: 0
ducksalad
  Plant response rating, Ducksalad: 0
Barnyardgrass [2]
  Plant response rating, Barnyardgrass: 0

## O=C1NCC(c2ccc(F)c(F)c2)C1C(=O)Nc1ccccc1Br (centres unmarked) [Compound 55]
Barnyardgrass [1]; [5]
  Plant response rating, Barnyardgrass: 30
Barnyardgrass [1]; [6]
  Plant response rating, Barnyardgrass: 90
Barnyardgrass [1]; [7]
  Barnyardgrass plant response rating: 20
Barnyardgrass [1]; [8]
  Plant response rating, Barnyardgrass: 80
crabgrass, large; [5]
  Plant response rating, Crabgrass, Large: 80
crabgrass, large; [6]
  Plant response rating, Crabgrass, Large: 80
crabgrass, large; [7]
  Crabgrass, Large plant response rating: 80
crabgrass, large; [9]
  Plant response rating, Crabgrass, Large: 90
Giant foxtail; [5]
  Plant response rating, Foxtail, Giant: 70
Giant foxtail; [6]
  Plant response rating, Foxtail, Giant: 80
Giant foxtail; [7]
  Foxtail, Giant plant response rating: 70
Giant foxtail; [9]
  Plant response rating, Foxtail, Giant: 90
morningglory; [5]
  Plant response rating, Morningglory: 0
morningglory; [6]
  Plant response rating, Morningglory: 0
morningglory; [7]
  Morningglory plant response rating: 0
morningglory; [9]
  Plant response rating, Morningglory: 0
pigweed; [5]
  Plant response rating, Pigweed: 0
pigweed; [6]
  Plant response rating, Pigweed: 0
pigweed; [7]
  Pigweed plant response rating: 0
pigweed; [9]
  Plant response rating, Pigweed: 0
velvetleaf; [5]
  Plant response rating, Velvetleaf: 0
velvetleaf; [6]
  Plant response rating, Velvetleaf: 0
velvetleaf; [7]
  Velvetleaf plant response rating: 0
velvetleaf; [9]
  Plant response rating, Velvetleaf: 0
wheat; [5]
  Plant response rating, Wheat: 0
wheat; [6]
  Plant response rating, Wheat: 0
wheat; [7]
  Wheat plant response rating: 0
wheat; [9]
  Plant response rating, Wheat: 0
corn; [5]
  Plant response rating, Corn: 0
corn; [6]
  Plant response rating, Corn: 0
corn; [7]
  Corn plant response rating: 0
corn; [9]
  Plant response rating, Corn: 0
rice
  Plant response rating, Rice: 50
sedge, umbrella
  Plant response rating, Sedge, Umbrella: 70
ducksalad
  Plant response rating, Ducksalad: 75
Barnyardgrass [2]
  Plant response rating, Barnyardgrass: 50
